Source: patent US20240024403A1, “Compositions and Methods for Managing Weight” (Unigen, Inc., priority 2012, published 2024)

Assay: High fat diet induced obesity (DIO) mouse model
Format: in vivo, C57CL/6J mice
Conditions: for Total Weight / Total Body Weight: in g (unit assumed); for Feed intake: orlistat 40 mg/kg/day oral
Experimental: C57CL/6J mice aged 4-6 weeks (Korea Research Institute of Bioscience & Biotechnology, Ohchang, Korea) were housed in Polycarbonate cages (five mice per cage) in a room with a 12 hr:12 hr light-dark cycle and an ambient temperature of 24° C. All the mice were fed a commercial chow diet for 1 week after arrival in the animal facility. Mice were then divided into normal and obesity groups and fed with normal diet (ND) and high fat diets (HFD) respectively. The HFD group was divided into multiple treatment groups: a high fat diet vehicle group (HFD), an orlistat (purchased as OTC drug Alli®) positive control treatment group (ORI, 40 mg/kg of animal weight, 2 times/day) and optionally a sibutramine positive control treatment group (10 mg/kg, 1 time/day). The HFD contained 340 g of fat/kg of HFD (310 g lard plus 30 g soybean oil; Harlan Laboratories, USA). The HFD was formulated to provide 60% of the total energy generated by the diet from fat by replacing carbohydrate energy with lard and soybean oil, whereas the normal diet (ND) group was fed a diet providing only 18% of the total diet energy from fat(Harlan Laboratories, USA).
Body weight was measured once each week and feed intake was measured twice per week. At the end of the experimental period, following a 12 hr. fasting period, the animals were anesthetized with ether, and blood was drawn from the abdominal vein. Liver and kidney and adipose tissues (epididymal, retroperitoneal, perirenal adipose tissues) were removed from each animal, rinsed with physiological saline, and weighed. Serum concentrations of glucose, total cholesterol, triglycerides, and LDL-cholesterol were determined using automatic analyzer (INTEGRA 400, Roche, Germany). Statistical significance of test results was measured using the Student's t-test.

[1] = DIO mice, week 2, G1 = 1,100 mg/kg orally twice a day
[2] = DIO mice, week 2, G1 = 1,200 mg/kg orally twice a day
[3] = DIO mice, week 3, G1 = 800 mg/kg orally twice a day
[4] = DIO mice, week 3, G1 = 1,100 mg/kg orally twice a day
[5] = DIO mice, week 3, G1 = 1,200 mg/kg orally twice a day
[6] = DIO mice, week 4, G1 = 800 mg/kg orally twice a day
[7] = DIO mice, week 4, G1 = 1,100 mg/kg orally twice a day
[8] = DIO mice, week 4, G1 = 1,200 mg/kg orally twice a day
[9] = DIO mice, week 5, G1 = 800 mg/kg orally twice a day
[10] = DIO mice, week 5, G1 = 1,100 mg/kg orally twice a day
[11] = DIO mice, week 5, G1 = 1,200 mg/kg orally twice a day
[12] = DIO mice, week 6, G1 = 800 mg/kg orally twice a day
[13] = DIO mice, week 6, G1 = 1,100 mg/kg orally twice a day
[14] = DIO mice, week 6, G1 = 1,200 mg/kg orally twice a day
[15] = DIO mice, week 7, G1 = 800 mg/kg orally twice a day
[16] = DIO mice, week 7, G1 = 1,100 mg/kg orally twice a day
[17] = DIO mice, week 7, G1 = 1,200 mg/kg orally twice a day
[18] = DIO mice, week 8, G1 = 800 mg/kg orally twice a day
[19] = DIO mice, week 8, G1 = 1,100 mg/kg orally twice a day
[20] = DIO mice, week 8, G1 = 1,200 mg/kg orally twice a day
[21] = Liver pathology, DIO mice, G1 = 800 mg/kg orally twice a day
[22] = Liver pathology, DIO mice, G1 = 1,100 mg/kg orally twice a day
[23] = ORI 40 mg/kg, DIO mice, end of study
[24] = ORI 40 mg/kg, mice fed a high fat diet (Table 44)
[25] = ORI 40 mg/kg, mice fed high fat diet
[26] = ORI, DIO mice, blood at end of study
[27] = blood at end of study, orlistat 40 mg/kg oral
[28] = liver pathology score, DIO mice, combination (10:1) 1100 mg/kg twice a day
[29] = liver pathology score, mice fed a high fat diet, Mutamba fractions 250 mg/kg oral 2 times per day, mean
[30] = liver pathology score, mice fed a high fat diet, Mutamba fractions 250 mg/kg oral 2 times per day, mean (table printed twice)

CCCCCCCCCCC[C@@H](C[C@@H]1OC(=O)[C@H]1CCCCCC)OC(=O)[C@H](CC(C)C)NC=O [ORI, orlistat]
Total Weight (DIO mice, week 2, G1 = 800 mg/kg orally twice a day): 34.08
Weight Gain [1]: −6.14
Total Weight [1]: 34.08
Weight Gain [2]: −6.14
Total Body Weight [2]: 34.08
Total Weight (DIO mice, week 2, ORI group, mean, Table 134): 31.91
Weight Gain (DIO mice, week 2, ORI group, mean, Table 135): −6.69
Total Body Weight (DIO mice, week 2, ORI group, mean, Table 145): 34.08
Weight Gain (DIO mice, week 2, ORI group, mean, Table 146): −6.14
Weight Gain [3]: −4.91
Total Weight [3]: 35.32
Weight Gain [4]: −4.91
Total Weight [4]: 35.32
Weight Gain [5]: −4.91
Total Body Weight [5]: 35.32
Total Weight (DIO mice, week 3, ORI group, mean, Table 134): 33.34
Weight Gain (DIO mice, week 3, ORI group, mean, Table 135): −5.27
Total Body Weight (DIO mice, week 3, ORI group, mean, Table 145): 35.32
Weight Gain (DIO mice, week 3, ORI group, mean, Table 146): −4.91
Weight Gain [6]: −3.84
Total Weight [6]: 36.38
Weight Gain [7]: −3.84
Total Weight [7]: 36.38
Weight Gain [8]: −3.84
Total Body Weight [8]: 36.38
Total Weight (DIO mice, week 4, ORI group, mean, Table 134): 35.14
Weight Gain (DIO mice, week 4, ORI group, mean, Table 135): −3.47
Total Body Weight (DIO mice, week 4, ORI group, mean, Table 145): 36.38
Weight Gain (DIO mice, week 4, ORI group, mean, Table 146): −3.84
Weight Gain [9]: −2.57
Total Weight [9]: 37.65
Weight Gain [10]: −2.57
Total Weight [10]: 37.65
Weight Gain [11]: −2.57
Total Body Weight [11]: 37.65
Total Weight (DIO mice, week 5, ORI group, mean, Table 134): 36.27
Weight Gain (DIO mice, week 5, ORI group, mean, Table 135): −2.34
Total Body Weight (DIO mice, week 5, ORI group, mean, Table 145): 37.65
Weight Gain (DIO mice, week 5, ORI group, mean, Table 146): −2.57
Weight Gain [12]: −1.47
Total Weight [12]: 38.75
Weight Gain [13]: −1.47
Total Weight [13]: 38.75
Weight Gain [14]: −1.47
Total Body Weight [14]: 38.75
Total Weight (DIO mice, week 6, ORI group, mean, Table 134): 37.52
Weight Gain (DIO mice, week 6, ORI group, mean, Table 135): −1.08
Total Body Weight (DIO mice, week 6, ORI group, mean, Table 145): 38.75
Weight Gain (DIO mice, week 6, ORI group, mean, Table 146): −1.47
Weight Gain [15]: −0.26
Total Weight [15]: 39.96
Weight Gain [16]: −0.26
Total Weight [16]: 39.96
Weight Gain [17]: −0.26
Total Body Weight [17]: 39.96
Total Weight (DIO mice, week 7, ORI group, mean, Table 134): 38.62
Weight Gain (DIO mice, week 7, ORI group, mean, Table 135): 0.02
Total Body Weight (DIO mice, week 7, ORI group, mean, Table 145): 39.96
Weight Gain (DIO mice, week 7, ORI group, mean, Table 146): −0.26
Weight Gain [18]: −0.23
Total Weight [18]: 39.99
Weight Gain [19]: −0.23
Total Weight [19]: 39.99
Weight Gain [20]: −0.23
Total Body Weight [20]: 39.99
Total Body Weight (DIO mice, week 8, ORI group, mean, Table 145): 39.99
Weight Gain (DIO mice, week 8, ORI group, mean, Table 146): −0.23
Hepatocellular ballooning (0-2) [21]: 0.33
Lobular Inflammation (0-3) [21]: 1.50
NASH (sum) [21]: 2.17
Steatosis (0-3) [21]: 0.33
Hepatocellular ballooning (0-2) [22]: 0.33
Lobular Inflammation (0-3) [22]: 1.50
NSAH (sum) [22]: 2.17
Steatosis (0-3) [22]: 0.33
Organ Weight: Epididymal Fat [23]: 1.92 g
Organ Weight: Liver [23]: 1.12 g
Organ Weight: Perirenal Fat [23]: 0.33 g
Organ Weight: Retroperitoneal Fat [23]: 0.47 g
Organ Weight: Total Fat [23]: 2.73 g
Average Body Weight Gain [24]: -0.031 g/day
Average Food Intake [24]: 2.711 g/day
Food Efficiency Ratio (FER) [24]: −0.011
Average Body Weight Gain [25]: -0.031 g/day
Average Food Intake [25]: 2.711 g/day
Food Efficiency Ratio (FER) (ORI 40 mg/kg, mice fed high fat diet, body weight gain (g/day)/food intake (g/day)): −0.011
Total Body Weight (ORI 40 mg/kg, week 0): 42.76
Total Body Weight (ORI 40 mg/kg, week 1): 38.73
Total Body Weight (ORI 40 mg/kg, week 2): 35.09
Total Body Weight (ORI 40 mg/kg, week 3): 35.66
Total Body Weight (ORI 40 mg/kg, week 4): 37.28
Total Body Weight (ORI 40 mg/kg, week 5): 38.57
Total Body Weight (ORI 40 mg/kg, week 6): 40.03
Total Body Weight (ORI 40 mg/kg, week 7): 40.91
F-Glu (fasting glucose) [26]: 222.43 mg/dL
LDL-C (LDL-cholesterol) [26]: 4.27 mg/dL
T-Chol (total cholesterol) [26]: 134.57 mg/dL
ALT [27]: 21.83 U/L
AST [27]: 65.65 U/L
LDL-C [27]: 4.03 mg/dL
T-chol [27]: 137.33 mg/dL
TG [27]: 27.83 mg/dL
Feed intake (day 4): 2.23 g/day
Feed intake (day 7): 2.56 g/day
Feed intake (day 11): 3.01 g/day
Feed intake (day 14): 3.18 g/day
Feed intake (day 21): 3.27 g/day
Feed intake (day 25): 3.27 g/day
Feed intake (day 28): 3.44 g/day
Feed intake (day 32): 3.27 g/day
Feed intake (day 35): 3.35 g/day
Feed intake (day 39): 3.17 g/day
Feed intake (day 42): 3.43 g/day
Feed intake (day 46): 3.18 g/day
Feed intake (day 49): 3.54 g/day
Feed intake (day 53): 3.17 g/day
weight decrease (end of the 8 week treatment): 0.23 gram
NASH (sum) (liver pathology score sum, DIO mice, combination (10:1) 1100 mg/kg twice a day): 3.40
Hepatocellular ballooning (0-2) [28]: 1.00
Lobular Inflammation (0-3) [28]: 1.40
Steatosis (0-3) [28]: 1.00
Hepatocellular ballooning (0-2) [29]: 0.80
Lobular Inflammation (0-3) [29]: 1.60
Steatosis (0-3) [29]: 1.00
Hepatocellular ballooning (0-2) [30]: 0.80
Lobular Inflammation (0-3) [30]: 1.60
Steatosis (0-3) [30]: 1.00
NSAH (sum) (liver pathology, sum of scores, mice fed a high fat diet, Mutamba fractions 250 mg/kg oral 2 times per day, mean): 3.40
NSAH (sum) (liver pathology, sum of scores, mice fed a high fat diet, Mutamba fractions 250 mg/kg oral 2 times per day, mean (table printed twice)): 3.40
